Measurements from paper PMC10808720 (Frontiers in Pharmacology, 2024).
Entries after “also recorded” stand apart in the source; their conditions may differ. Where two headings read alike, the source gives them in different places.

Assays:
HAdV5-GFP = experiment: microbe, parasite or virus in culture; assay type: cell-based, human adenovirus (HAdV5); conditions: for Selectivity index: CC50 (A549) vs IC50 plaque assay (HAdV5)
Description: Compounds were tested using low MOI infections (0.06 vp/cell), initially at concentrations of 10 μM and subsequently in a dose-response assay ranging from 10 μM to 2.44 nM in a plaque assay. Briefly, 293β5 cells were seeded in 6-well plates at a density of 1 × 10^6 cells per well in duplicate for each condition. When the cells reached 80%–90% confluency, they were infected with HAdV5-GFP and rocked for 2 h at 37°C. After the incubation, the inoculum was removed and the cells were washed once with PBS. Cells were then carefully overlaid with equal parts of 4 mL/well 1.6% ([…]) Difco Agar Noble (Becton, Dickinson & Co., Sparks, MD, USA) and 2× Eagle’s Minimum Essential Medium (EMEM; BioWhittaker) supplemented with 2×penicillin/streptomycin, 2× L-glutamine, and 10% FBS. The mixture also contained the compounds in the concentration ranges described above. Following incubation for 7 days at 37°C, plates were scanned with a Typhoon FLA 9000 imager (GE Healthcare Life Sciences) and the formed plaques were quantified with ImageJ ([Schneider et al., 2012]). Plaque counting was performed to calculate the 50% inhibitory concentration (IC50) of each compound using the statistical software GraphPad Prism 6.

p53/MDM2 complex = assay type: cell-based, Human; conditions: HAdV5-infected A549 cells, 24 h; for concentration of p53/MDM2 complexes, high vs low cell density: 10-fold IC50
Description: A549 cells were seeded at a density of 1.5 × 10^5 cells per well in a 24-well plate at a high density and 3.75 × 10^4 cells per well at a low density. […] The culture medium was then aspirated and washed with 1X with cold PBS. Later, 200 μL RIPA Lysis Buffer (1% v/v NP-40, 20 mM Tris-HCL pH 7.4, 5 mM Sodium Pyrophosphate, 5 mM EDTA) with freshly added proteinase inhibitor cocktail (Thermo Fisher Scientific) was added to each well and swirled to distribute it evenly. Cells were then scraped and collected to incubate them for 30 min on ice and finally centrifuged at 13,000 × g for 5 min at 4°C. […] This assay was performed in triplicate.

[1] = Cytotoxicity assay (AlamarBlue); assay type: cell-based, Human; conditions: human, A549 cells; for CC50: 48 h
Description: The cytotoxicity of the molecules was analyzed using the commercial kit AlamarBlue® (Invitrogen, Ref. DAL1025) according to the manufacturer’s instructions. Briefly, A549 cells were seeded at a density of 5 × 10^3 cells per well in 96-well plates, and decreasing serial dilutions of each molecule were diluted in 100 μL of DMEM starting at 200 μM. The cells were then incubated at 37°C for 48 h following the manufacturer’s protocol. The cytotoxic concentration 50% (CC50) value was obtained using the statistical software GraphPad Prism 6. The assay was performed in duplicate.

HAdV5-RFP = experiment: Anti-HAdV activity after knockdown of RPS14 by siRNA (RFP expression); assay type: cell-based, human adenovirus (HAdV5); conditions: RPS14 knockdown 293β5 cells; 10-fold IC50; 48 h
Description: An siRNA approach was used to evaluate the antiviral activity of these molecules in the absence of RPS14. According to the supplier’s protocol (Effectene Transfection Reagent, QIAGEN, Valencia, CA), 293β5 cells at 1.5 × 10^4 cells/well were seeded in a clear bottom 96-well microplate a day before transfection. On the day of transfection, 0.1 µg siRNA (MISSION esiRNA RPS14, SigmaAldrich) was diluted in EC buffer up to 30 µL/well and 0.8 µL/well of the enhancer was added and the mix was incubated for 5 min. Effectene transfection reagent was added and the mix was incubated for 10 min to allow transfection complex formation. The cell layers were washed with 1x PBS and transfection complexes were poured over them. After 6 h of incubation, the transfection complexes were removed and the cells were infected with HAdV5-RFP (MOI 2,000 viral particles/cell) in the presence of a 10-fold IC50 concentration of the compounds obtained in the plaque assay or the same volume of DMSO. Standard infection was induced in the presence of the same concentrations of the compounds (performed in triplicate), and a control without siRNA. Cells, viruses, and compounds were incubated for 48 h at 37°C and 5% CO2. Infection, as measured by HAdV5-mediated RFP expression, was analyzed using a Typhoon 9410 imager (GE Healthcare Life Sciences) and quantified using ImageQuantTL (GE Healthcare Life Sciences).

wild-type HAdV5 [2] = experiment: HAdV yield reduction (burst) assay, TCID50 end-point dilution; assay type: cell-based, human adenovirus (HAdV5); conditions: 10-fold IC50 concentration, TCID50/ml compound vs. DMSO, A549 cells, 48 h, MOI 100 vp/cell
Description: A549 cells (1.5 × 10^5 cells/well in a 24-well plate) were incubated 24 h in 500 μL of complete DMEM and they were infected with wild-type HAdV5 (MOI 100 vp/cell) when more than 90% of confluency was observed. Infected cells were incubated for 48 h at 37°C in 500 μL of either complete DMEM containing 10-fold IC50 concentration of compounds obtained in the plaque assay or the same volume of DMSO (positive control). After 48 h, the cells were harvested and subjected to three rounds of freeze/thaw. Serial dilutions of the clarified lysates were titrated against A549 cells (3 × 10^4 cells/well in a 96-well plate) and TCID50 values were calculated using an end-point dilution method ([Reed and Muench, 1938]).

HCMV = experiment: Impact on HCMV replication (qPCR of HCMV DNA in HFF); assay type: cell-based, human cytomegalovirus; conditions: 2-fold IC50 (HAdV plaque assay), 72 h
Description: To test the anti-HCMV activity of these rotenolone-related compounds, human foreskin fibroblasts (HFF; ATCC, Manassas, VA) were seeded in a 24-well plate (8.3 × 10^4 cells/well), infected with HCMV (MOI 0.05 vp/cell), and incubated in complete DMEM in the presence of either 2-fold IC50 concentration of each compound obtained in the plaque assay against HAdV or the same volume of DMSO (positive control) in duplicate. The cells were incubated for 72 h at 37°C and 5% CO2 and HCMV DNA was purified from the cell lysate using E.Z.N.A Tissue DNA Kit (Omega Biotek, Norcross, GA, USA) following the manufacturer’s instructions. The qPCR primers, conditions, and protocols were the same as previously reported ([Mazzotta et al., 2020b]).

wild-type HAdV5 [3] = experiment: HAdV DNA quantification by qPCR; assay type: cell-based, human adenovirus (HAdV5); conditions: 10-fold IC50; A549; 24 h; vs DMSO control
Description: For DNA quantification, A549 cells (1.5 × 10^5 cells/well in a 24-well plate) were incubated for 24 h in 500 μL of complete DMEM and were infected with wild-type HAdV5 (MOI 100 vp/cell) after observing more than 90% of confluency. Infected cells were incubated for 24 h at 37°C in 500 μL of either complete DMEM containing 10-fold IC50 concentration of the compounds obtained in the plaque assay or the same volume of DMSO (positive control). All samples were prepared in duplicate. After 24 h of incubation at 37°C, DNA was purified from the cell lysate with the E.Z.N.A.® Tissue DNA Kit (Omega Bio-tek, Norcross, GA) following the manufacturer’s instructions. PCR conditions, primers, and probes were as described by [Henke-Gendo et al. (2012)]. Human glyceraldehyde-3-phosphate dehydrogenase (GAPDH) gene was used as an internal control. GAPDH oligonucleotide sequences and conditions were as previously described by [Rivera et al. (2004)].
For quantification, gene fragments from hexons, and GAPDH were cloned into the pGEM-T Easy vector (Promega) and known concentrations of the template were used to generate a standard curve in parallel for each experiment, as previously reported ([Sanchez-Cespedes et al., 2016]). All assays were performed in thermal cycler LightCycler® 96 System (Roche).

[4] = Human adenovirus sp., 168 h, read-out: IC50 plaque assay

Row | Structure (SMILES) | IC50 (HAdV5-GFP; Human adenovirus sp.) | concentration of p53/MDM2 complexes, high vs low cell density (p53/MDM2 complex) | concentration of p53/MDM2 complexes (p53/MDM2 complex) | CC50 [1] | HAdV-mediated RFP expression when no RPS14 was available (HAdV5-RFP) | Virus Yield Fold-reduction (wild-type HAdV5 [2]) | Selectivity index (HAdV5-GFP) | IC50 (HAdV5-GFP; [4]) | inhibition of HCMV replication (HCMV) | CC50 at 48 h [1] | Virus Yield Fold-reduction (wild-type HAdV5 [2]; listed as deguelin) | HAdV DNA copy number (de novo synthesis) (wild-type HAdV5 [3]) | inhibition at 10 µM (HAdV5-GFP; Human adenovirus sp., read-out: inhibition of plaque formation) | increase of HCMV replication compared with the control treated with DMSO (HCMV)
1 | CC[C@H]1CN2CCc3cc(OC)c(OC)cc3[C@@H]2C[C@@H]1C[C@H]1NCCc2cc(OC)c(OC)cc21 [emetine, reference compound] | 0.085 ± 0.019 µM | no differences based on the cell density; also recorded: non among emetine, rotenone, deguelin and tephrosin alter the concentrations | dramatically reduced | 6.17 ± 0.04 µM | reduced |  |  |  |  |  |  |  |  | 
2 | COc1cc2c(cc1OC)[C@]1(O)C(=O)c3ccc4c(c3O[C@@H]1CO2)C=CC(C)(C)O4 [Tephrosin, hydroxydeguelin] |  | non among emetine, rotenone, deguelin and tephrosin alter the concentrations |  |  |  | 2.7E+03 ± 987.3 fold | 538.9 | 0.07 ± 0.03 µM | 83.4% | 37.7 ± 0.6 µM |  |  |  | 
3 | COc1cc2c(cc1OC)[C@@H]1C(=O)c3ccc4c(c3O[C@@H]1CO2)C=CC(C)(C)O4 [Deguelin, (7aS,13aS)-13,13a-Dihydro-9,10-dimethoxy-3,3-dimethyl-3H-bis ([Mennechet et al., 2019])benzopyrano[3,4-b:6′,5′-e]pyran-7-(7aH)-one] |  | non among emetine, rotenone, deguelin and tephrosin alter the concentrations |  | 97.2 ± 0.1 µM |  | 2.7E+02 ± 19.4 fold | 2,429.3 | 0.04 ± 0.01 µM | 50% |  | 270 fold | significant decrease |  | 
4 | CC1(C)C=Cc2c(ccc3c2O[C@@H]2COc4cc5c(cc4[C@@H]2C3=O)OCO5)O1 [Millettone] |  |  |  | 109 ± 2.2 µM |  |  | 23.8 | 4.6 ± 0.54 µM | did not inhibit |  |  |  | > 98% | more than 10 times
